Experimental data from patent US10183918B2, “Oxa-azaspiro compounds having activity against pain” (LABORATORIOS DEL DR. ESTEVE S.A., priority 2015, dated 2019).

Molecular target: T1, human σ1 receptor (Homo sapiens, UniProt Q99720)
T1 construct: expressed in transfected cells; host or cells: HEK-293 (membranes)
Experiment: Human σ1 receptor radioligand assay
Assay type: binding
Settings: transfected HEK-293 membranes, 5 nM [3H](+)-pentazocine as radioligand
Procedure: Human σ1 Receptor Radioligand Assay
To investigate binding properties of test compounds to human σ1 receptor, transfected HEK-293 membranes and [^3H](+)-pentazocine (Perkin Elmer, NET-1056), as the radioligand, were used. The assay was carried out with 7 μg of membrane suspension, 5 nM of [^3H](+)-pentazocine in either absence or presence of either buffer or 10 μM Haloperidol for total and non-specific binding, respectively. Binding buffer contained Tris-HCl 50 mM at pH 8. Plates were incubated at 37° C. for 120 minutes. After the incubation period, the reaction mix was then transferred to Multiscreen HTS, FC plates (Millipore), filtered and plates were washed 3 times with ice-cold 10 mM Tris-HCL (pH7.4). Filters were dried and counted at approximately 40% efficiency in a MicroBeta scintillation counter (Perkin-Elmer) using EcoScint liquid scintillation cocktail

T1 sequence (Q99720 whole entry): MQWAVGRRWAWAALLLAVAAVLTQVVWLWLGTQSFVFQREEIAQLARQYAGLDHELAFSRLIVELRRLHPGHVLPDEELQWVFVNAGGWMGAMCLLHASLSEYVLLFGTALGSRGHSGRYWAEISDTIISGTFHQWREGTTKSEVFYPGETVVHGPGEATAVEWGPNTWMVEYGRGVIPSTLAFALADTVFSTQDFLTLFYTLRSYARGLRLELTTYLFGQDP

Structure (SMILES) | Ki [nM]
CCN1CC2(CC2)O[C@]2(CC[C@H](N(C)Cc3ccccc3)CC2)C1 [Example 18, (5r,8r)-N-benzyl-12-ethyl-N-methyl-4-oxa-12-azadispiro[2.1.5.3]tridecan-8-amine] | < 500
CN(Cc1ccccc1)[C@H]1CC[C@@]2(CC1)CN(c1ccccc1)CC1(CC1)O2 [Example 19, (5s,8s)-N-benzyl-N-methyl-12-phenyl-4-oxa-12-azadispiro[2.1.5.3]tridecan-8-amine] | < 100
CN(Cc1ccccc1)[C@H]1CC[C@]2(CC1)CN(c1ccccc1)CC1(CC1)O2 [Example 20, (5r,8r)-N-benzyl-N-methyl-12-phenyl-4-oxa-12-azadispiro[2.1.53]tridecan-8-amine] | < 100
CCN1C[C@]2(CC[C@@H](NC)CC2)OC2(CC2)C1=O [Example 21, (5r,8r)-12-ethyl-8-(methylamino)-4-oxa-12-azadispiro[2.1.5.3]tridecan-13-one acetate] | ≥ 500
CCN1C[C@]2(CC[C@H](NC)CC2)OC2(CC2)C1=O [Example 22, (5s,8s)-12-ethyl-8-(methylamino)-4-oxa-12-azadispiro[2.1.5.3]tridecan-13-one acetate] | ≥ 500
CN[C@H]1CC[C@@]2(CC1)CN(c1ccccc1)C(=O)C1(CC1)O2 [Example 23, (5s,8s)-8-(methylamino)-12-phenyl-4-oxa-12-azadispiro[2.1.5.3]tridecan-13-one acetate] | ≥ 500
CN[C@H]1CC[C@]2(CC1)CN(c1ccccc1)C(=O)C1(CC1)O2 [Example 24, (5r,8r)-8-(methylamino)-12-phenyl-4-oxa-12-azadispiro[2.1.5.3]tridecan-13-one acetate] | ≥ 500
CN[C@H]1CC[C@@]2(CC1)CN(c1ccccc1)CC1(CC1)O2 [Example 25, (5s,8s)-N-methyl-12-phenyl-4-oxa-12-azadispiro[2.1.5.3]tridecan-8-amine acetate] | ≥ 500
CN[C@H]1CC[C@]2(CC1)CN(c1ccccc1)CC1(CC1)O2 [Example 26, (5r,8r)-N-rnethyl-12-phenyl-4-oxa-12-azadispiro[2.1.5.3]tridecan-8-amine acetate] | ≥ 500
CCN1C[C@]2(CC[C@@H](N(C)CCC(C)C)CC2)OC2(CC2)C1=O [Example 27, (5r,8r)-12-ethyl-8-[methyl(3-methylbutyl)amino]-4-oxa-12-azadispiro[2.1.5.3]tridecan-13-one] | < 500
CCN1C[C@]2(CC[C@H](N(C)CCC(C)C)CC2)OC2(CC2)C1=O [Example 28, (5s,8s)-12-ethyl-8-[rnethyl(3-methylbutyl)amino]-4-oxa-12-azadispiro[2.1.5.3]tridecan-13-one] | < 500
CC(C)CCN(C)[C@H]1CC[C@@]2(CC1)CN(c1ccccc1)C(=O)C1(CC1)O2 [Example 29, (5s,8s)-8-[methyl(3-methylbutyl)amino]-12-phenyl-4-oxa-12-azadispiro[2.1.5.3]tridecan-13-one] | < 500
CC(C)CCN(C)[C@H]1CC[C@]2(CC1)CN(c1ccccc1)C(=O)C1(CC1)O2 [Example 30, (5r,8r)-8-[methyl(3-methylbutyl)amino]-12-phenyl-4-oxa-12-azadispiro[2.1.5.3]tridecan-13-one] | < 100
CC(C)CCN(C)[C@H]1CC[C@@]2(CC1)CN(c1ccccc1)CC1(CC1)O2 [Example 31, (5s,8s)-N-methyl-N-(3-methylbutyl)-12-phenyl-4-oxa-12-azadispiro[2.1.5.3]tridecan-8-amine] | < 100
CC(C)CCN(C)[C@H]1CC[C@]2(CC1)CN(c1ccccc1)CC1(CC1)O2 [Example 32, (5r,8r)-N-rnethyl-N-(3-methylbutyl)-12-phenyl-4-oxa-12-azadispiro[2.1.5.3]tridecan-8-amine] | < 100
CCN1C[C@]2(CC[C@H](N(C)CC(C)C)CC2)OC2(CC2)C1=O [Example 33, (5s,8s)-12-ethyl-8-[methyl(2-methylpropyl)amino]-4-oxa-12-azadispiro[2.1.5.3]tridecan-13-one] | < 500
CN(CCc1ccccc1)[C@H]1CC[C@]2(CC1)CN(c1ccccc1)CC1(CC1)O2 [Example 34, (5r,8r)-N-methyl-12-phenyl-N-(2-phenylethyl)-4-oxa-12-azadispiro[2.1.5.3]tridecan-8-amine] | < 100
CCN1CC2(CC2)O[C@]2(CC[C@H](N(C)CCC(C)C)CC2)C1 [Example 35, (5r,8r)-12-ethyl-N-methyl-N-(3-methylbutyl)-4-oxa-12-azadispiro[2.1.5.3]tridecan-8-amine] | < 500
CCN1C[C@]2(CC[C@H](NCc3ccccc3)CC2)OCC1=O [Example 36, (6s,9s)-9-(benzylamino)-4-ethyl-1-oxa-4-azaspiro[5.5]undecan-3-one] | ≥ 500
CCN1C[C@]2(CC[C@@H](NCc3ccccc3)CC2)OCC1=O [Example 37, (6r,9r)-9-(benzylamino)-4-ethyl-1-oxa-4-azaspiro[5.5]undecan-3-one] | ≥ 500

Structure (SMILES) | Ki [nM]
CCN1C[C@]2(CC[C@H](N(C)CC(C)C)CC2)OCC1=O [Example 38, (6s,9s)-4-ethyl-9-(isobutyl(methyl)amino)-1-oxa-4-azaspiro[5.5]undecan-3-one] | < 500
CCN1C[C@]2(CC[C@H](NCc3ccccc3)CC2)OC(C)(C)C1=O [Example 39, (6s,9s)-9-(benzylamino)-4-ethyl-2,2-dimethyl-1-oxa-4-azaspiro[5.5]undecan-3-one] | ≥ 500
CCN1C[C@]2(CC[C@@H](NCc3ccccc3)CC2)OC(C)(C)C1=O [Example 40, (6r,9r)-9-(benzylamino)-4-ethyl-2,2-dimethyl-1-oxa-4-azaspiro[5.5]undecan-3-one] | ≥ 500
CCN1C[C@]2(CC[C@H](N(C)Cc3ccccc3)CC2)OCC1=O [Example 41, (6s,9s)-9-(benzyl(methyl)amino)-4-ethyl-1-oxa-4-azaspiro[5.5]undecan-3-one] | < 500
CCN1C[C@]2(CC[C@@H](N(C)Cc3ccccc3)CC2)OCC1=O [Example 42, (6r,9r)-9-(benzyl(methyl)amino)-4-ethyl-1-oxa-4-azaspiro[5.5]undecan-3-one] | < 100
CCN1C[C@]2(CC[C@H](N(C)Cc3ccccc3)CC2)OC(C)(C)C1=O [Example 43, (6s,9s)-9-(benzyl(methyl)amino)-4-ethyl-2,2-dimethyl-1-oxa-4-azaspiro[5.5]undecan-3-one] | < 100
CCN1C[C@]2(CC[C@@H](N(C)Cc3ccccc3)CC2)OC(C)(C)C1=O [Example 44, (6r,9r)-9-(benzyl(methyl)amino)-4-ethyl-2,2-dimethyl-1-oxa-4-azaspiro[5.5]undecan-3-one] | < 500
CN(Cc1ccccc1)[C@H]1CC[C@@]2(CC1)CN(C(=O)c1ccccc1)CC1(CC1)O2 [Example 45, ((5s,8s)-8-[Benzyl(methyl)amino]-4-oxa-12-azadispiro[2.1.5.3]tridecan-12-yl)(phenyl)methanone] | < 100
CN(Cc1ccccc1)[C@H]1CC[C@]2(CC1)CN(C(=O)c1ccccc1)CC1(CC1)O2 [Example 46, ((5r,8r)-8-[Benzyl(methyl)amino]-4-oxa-12-azadispiro[2.1.5.3]tridecan-12-yl)(phenyl)methanone] | < 500
CCN1C[C@]2(CC[C@H](NC)CC2)OCC1=O [Example 47, (6s,9s)-4-ethyl-9-(methylamino)-1-oxa-4-azaspiro[5.5]undecan-3-one acetate] | ≥ 500
CCN1C[C@]2(CC[C@H](NC)CC2)OC(C)(C)C1=O [Example 48, (6s,9s)-4-ethyl-2,2-dimethyl-9-(methylamino)-1-oxa-4-azaspiro[5.5]undecan-3-one acetate] | ≥ 500
CCN1C[C@]2(CC[C@@H](NC)CC2)OC(C)(C)C1=O [Example 49, (6r,9r)-4-ethyl-2,2-dimethyl-9-(methylamino)-1-oxa-4-azaspiro[5.5]undecan-3-one acetate] | ≥ 500
CN[C@H]1CC[C@@]2(CC1)CN(C(=O)c1ccccc1)CC1(CC1)O2 [Example 50, ((5s,8s)-8-(methylamino)-4-oxa-12-azadispiro[2.1.5.3]tridecan-12-yl)(phenyl)methanone acetate] | ≥ 500
CCN1C[C@]2(CC[C@H](N(C)CCc3ccccc3)CC2)OCC1=O [Example 51, (6s,9s)-4-ethyl-9-(methyl(phenethyl)amino)-1-oxa-4-azaspiro[5.5]undecan-3-one] | < 500
CCN1C[C@]2(CC[C@H](N(C)CCC(C)C)CC2)OCC1=O [Example 52, (6s,9s)-4-ethyl-9-(isopentyl(methyl)amino)-1-oxa-4-azaspiro[5.5]undecan-3-one] | < 500
CCN1C[C@]2(CC[C@H](N(C)CCC(C)C)CC2)OC(C)(C)C1=O [Example 53, (6s,9s)-4-ethyl-9-(isopentyl(methyl)amino)-2,2-dimethyl-1-oxa-4-azaspiro[5.5]undecan-3-one] | < 500
CCN1C[C@]2(CC[C@H](N(C)CC(C)C)CC2)OC(C)(C)C1=O [Example 54, (6s,9s)-4-ethyl-9-(isobutyl(methyl)amino)-2,2-dimethyl-1-oxa-4-azaspiro[5.5]undecan-3-one] | < 500
CCN1C[C@]2(CC[C@H](N(C)CCc3ccccc3)CC2)OC(C)(C)C1=O [Example 55, (6s,9s)-4-ethyl-2,2-dimethyl-9-(methyl(phenethyl)amino)-1-oxa-4-azaspiro[5.5]undecan-3-one] | < 100
CCN1C[C@]2(CC[C@@H](N(C)CCc3ccccc3)CC2)OC(C)(C)C1=O [Example 56, (6r,9r)-4-ethyl-2,2-dimethyl-9-(methyl(phenethyl)amino)-1-oxa-4-azaspiro[5.5]undecan-3-one] | < 100
